Measured values published in patent US20140128365A1, “PYRIDONE/HYDROXYPYRIDINE 11-BETA HYDROXYSTEROID DEHYDROGENASE TYPE I INHIBITORS” (BRISTOL-MYERS SQUIBB COMPANY, priority 2012, published 2014).
Read-outs that look alike come from different tables or passages of the source.

What was measured:
[1] = molecular target: T1, recombinant human 11beta-HSD1 (Homo sapiens, UniProt P28845); test: In vitro inhibition of recombinant human 11beta-HSD1, microsomal Scintillation Proximity Assay (SPA); type: biochemical; conditions: microsomes from HEK 293 EBNA cells, 250 nM [3H]-cortisone, 500 μM NADPH, pH 6.5, room temperature
T1 construct: made in house; microsomal fraction used as enzyme source
Method: The in vitro inhibition of recombinant human 11beta-HSD1 was determined as follows.
Cells were grown in DMEM (high glucose) containing MEM non-essential amino acids, L-glutamine, hygromycine B (200 ug/ml), and G418 (200 ug/ml). The cell pellets were homogenized, and the microsomal fraction was obtained by differential centrifugation. 11beta-HSD1 over expressed microsomes were used as the enzyme source for the Scintillation Proximity Assay (SPA). […] The reaction was terminated with the addition of 1 mM 18β-glycerrhentic acid. SPA reagent mixture (YSi anti-rabbit IgG, anti-cortisol antibody in 50 mM Tris, pH 8.0 containing 1% CHAPS and 1% glycerol) was added and the reaction was further incubated at room temperature over night and counted in TopCount.
In the structures set forth in Table 10, the “—O” attached to the carbon adjacent to the nitrogen in the bicyclic core is used to denote an “—OH” group as indicated in Formula I. Similarly, in the structures set forth in Table 10, the “N” adjacent to the carbon atom substituted with ═O in the bicyclic or tricyclic core is used to denote an “NH” moiety as indicated in Formula I-t.

[2] = tested on: hepatic glucose production; conditions: seven day treatment, patients with type 2 diabetes, versus placebo group; cited from earlier work

T1 sequence (P28845 whole entry): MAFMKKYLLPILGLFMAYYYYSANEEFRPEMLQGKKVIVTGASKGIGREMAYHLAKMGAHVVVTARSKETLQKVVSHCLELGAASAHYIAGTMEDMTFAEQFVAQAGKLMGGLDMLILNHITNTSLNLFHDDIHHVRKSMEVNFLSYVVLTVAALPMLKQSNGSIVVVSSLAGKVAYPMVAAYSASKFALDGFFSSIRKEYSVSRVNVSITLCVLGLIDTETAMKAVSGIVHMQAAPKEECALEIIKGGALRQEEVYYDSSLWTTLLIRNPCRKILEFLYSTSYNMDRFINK

Molecule | IC50 [1] | other results
4,7-Dichloro-1-(2-chlorobenzylthio)isoquinolin-3-ol [Example 109] | – | IC50 ([1]; read-out: IC50 (concentration of compound required for 50% inhibition of cortisol formation)): 671 nM
CC1(C)[C@@H](OC(=O)CCC(=O)O)CC[C@]2(C)[C@H]3C(=O)C=C4[C@@H]5C[C@@](C)(C(=O)O)CC[C@]5(C)CC[C@@]4(C)[C@]3(C)CC[C@@H]12 [carbenoxolone] | – | hepatic glucose production [2]: decrease in hepatic glucose production
COc1cccc(CSc2nc(O)c(C#N)c3c2CCCC3)c1 [Example 17] | 461 nM | –
COc1ccc(CSc2nc(O)c(C#N)c3c2CCCC3)cc1 [Example 25] | 467 nM | –

More lines, main results first:

IC50 [1] | Molecule | other results
> 10000 nM | N#Cc1c(O)nc(SCc2ccccc2C(=O)O)c2c1CCCC2 [Example 34] | –
1.45 nM | N#Cc1ccccc1CSc1nc(O)c(C#N)c2ccc(F)cc12 [Example 153] | –
